What was measured:
Assay type in all cases: in vivo
[1] = test system: barnyardgrass (Echinochloa crus-galli); experiment: Test A preemergence; conditions: Echinochloa crus-galli, pre-emergence, 240 h; for pest or weed control at 125 g/ha: 125 g ai/ha, preemergence, 0 to 100 scale where 0 is no effect and 100 is complete control, read-out: Barnyardgrass plant response rating; for pest or weed control at 500 g/ha: 500 g ai/ha, Preemergence, visual injury vs untreated controls after approximately 10 d, read-out: Barnyardgrass plant response rating (0 to 100 scale where 0 is no effect and 100 is complete control)
Outline: (§1)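 Seeds sprayed preemergence with a directed soil spray, or plants at 2 to 10 cm height and one- to two-leaf stage sprayed postemergence, with test chemicals in a non-phytotoxic solvent mixture containing surfactant, in loam soil–sand blend. Injury rated visually against untreated controls after about 10 d in greenhouse, 0 (no effect) to 100 (complete control).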

[2] = test system: ryegrass, Italian (Italian ryegrass, Lolium multiflorum); experiment: Test A postemergence; conditions: Lolium multiflorum, post-emergence, 240 h, 125 g ai/ha, postemergence, visual injury rating after approximately 10 d; read-out: Ryegrass, Italian plant response rating (0 to 100 scale, 0 no effect, 100 complete control)
Outline: as §1

[3] = test system: Galium (catchweed bedstraw, Galium aparine); experiment: Test A postemergence; conditions: Galium, post-emergence, 240 h, 125 g ai/ha, postemergence, visual injury rating after approximately 10 d; read-out: Galium plant response rating (0 to 100 scale, 0 no effect, 100 complete control)
Outline: as §1

[4] = test system: pigweed (Amaranthus retroflexus); experiment: Test A postemergence; conditions: Amaranthus retroflexus, post-emergence, 240 h, 125 g ai/ha, postemergence, visual injury rating after approximately 10 d; read-out: Pigweed plant response rating (0 to 100 scale, 0 no effect, 100 complete control)
Outline: as §1

[5] = test system: barnyardgrass (Echinochloa crus-galli); experiment: Test A postemergence; conditions: Echinochloa crus-galli, post-emergence, 240 h, 125 g ai/ha, postemergence, visual injury rating after approximately 10 d; read-out: Barnyardgrass plant response rating (0 to 100 scale, 0 no effect, 100 complete control)
Outline: as §1

[6] = test system: giant foxtail (Setaria faberii); experiment: Test A postemergence; conditions: Setaria faberi, post-emergence, 240 h, 125 g ai/ha, postemergence, visual injury rating after approximately 10 d; read-out: Foxtail, Giant plant response rating (0 to 100 scale, 0 no effect, 100 complete control)
Outline: as §1

[7] = test system: wheat (Triticum aestivum); experiment: Test A postemergence; conditions: Triticum aestivum, post-emergence, 240 h, 125 g ai/ha, postemergence, visual injury rating after approximately 10 d; read-out: Wheat plant response rating (0 to 100 scale, 0 no effect, 100 complete control)
Outline: as §1

corn (Zea mays) = experiment: Test A postemergence; conditions: Zea mays, post-emergence, 240 h, 125 g ai/ha, postemergence, visual injury rating after approximately 10 d; read-out: Corn plant response rating (0 to 100 scale, 0 no effect, 100 complete control)
Outline: as §1

[8] = test system: blackgrass (Alopecurus myosuroides); experiment: Test A postemergence; conditions: Alopecurus myosuroides, post-emergence, 240 h, 125 g ai/ha, postemergence, visual injury rating after approximately 10 d; read-out: Blackgrass plant response rating (0 to 100 scale, 0 no effect, 100 complete control)
Outline: as §1

Kochia (Kochia scoparia) = experiment: Test A postemergence; conditions: Bassia scoparia, post-emergence, 240 h, 125 g ai/ha, postemergence, visual injury rating after approximately 10 d; read-out: Kochia plant response rating (0 to 100 scale, 0 no effect, 100 complete control)
Outline: as §1

[9] = test system: ragweed (common ragweed, Ambrosia elatior); experiment: Test A postemergence; conditions: Ambrosia artemisiifolia, post-emergence, 240 h, 125 g ai/ha, postemergence, visual injury rating after approximately 10 d; read-out: Ragweed plant response rating (0 to 100 scale, 0 no effect, 100 complete control)
Outline: as §1

rice (Oryra sativa) = experiment: Test B flooded paddy test; conditions: Oryza sativa, Flood, 250 g ai/ha; scale of 0 to 100 where 0 is no effect and 100 is complete control; read-out: Rice plant response rating
Outline: (§2)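 Greenhouse paddy pots with 2-leaf stage plants received compound by direct addition to floodwater 3 cm deep, kept at that level. Scored visually at 13–15 d versus controls (0 no effect; 100 complete control).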

[10] = test system: sedge, umbrella (small-flower umbrella sedge, Cyperus difformis); experiment: Test B flooded paddy test; conditions: Cyperus difformis, Flood, 250 g ai/ha; scale of 0 to 100 where 0 is no effect and 100 is complete control; read-out: Sedge, Umbrella plant response rating
Outline: as §2

[11] = test system: barnyardgrass (Echinochloa crus-galli); experiment: Test B flooded paddy test; conditions: Echinochloa crus-galli, Flood, 250 g ai/ha; scale of 0 to 100 where 0 is no effect and 100 is complete control; read-out: Barnyardgrass plant response rating
Outline: as §2

[12] = test system: ducksalad (Heteranthera limosa); experiment: Test B flooded paddy test; conditions: Heteranthera limosa, Flood, 250 g ai/ha; scale of 0 to 100 where 0 is no effect and 100 is complete control; read-out: Ducksalad plant response rating
Outline: as §2

SMILES	pest or weed control at 125 g/ha [1] [%]	pest or weed control at 500 g/ha [1] [%]	pest or weed control at 125 g/ha [2] [%]	pest or weed control at 125 g/ha [3] [%]	pest or weed control at 125 g/ha [4] [%]	pest or weed control at 125 g/ha [5] [%]	pest or weed control at 125 g/ha [6] [%]	plant injury at 125 g/ha [7] [%]	plant injury at 125 g/ha (corn (Zea mays)) [%]	pest or weed control at 125 g/ha [8] [%]	pest or weed control at 125 g/ha (Kochia (Kochia scoparia)) [%]	pest or weed control at 125 g/ha [9] [%]	pest or weed control at 250 g/ha (rice (Oryra sativa)) [%]	pest or weed control at 250 g/ha [10] [%]	pest or weed control at 250 g/ha [11] [%]	pest or weed control at 250 g/ha [12] [%]
COc1c(F)ccc([C@H]2CNC(=O)[C@@H]2C(=O)Nc2ccccc2F)c1Cl [Compound 881]	80	90	30	0	0	90	80	0	0	0	30	0	15	0	45	100
COc1c(F)ccc([C@H]2CNC(=O)[C@@H]2C(=O)Nc2cccc(F)c2F)c1Cl [Compound 882]	90	90	40	50	30	80	70	0	80	40	60	0	0	0	45	100
O=C1NC[C@H](c2ccc3c(c2)CCCO3)[C@H]1C(=O)Nc1ccccc1F [Compound 885]	70	90	0	20	0	70	40	0	0	0	0	0	0	0	0	60
O=C1NC[C@H](c2cncc(C(F)(F)F)c2)[C@H]1C(=O)Nc1ccccc1F [Compound 887]	90	90	0	0	0	80	70	0	0	0	0	0	0	0	50	65
COc1c(F)ccc([C@H]2CN(C)C(=O)[C@@H]2C(=O)Nc2cccc(F)c2F)c1Cl [Compound 893]	90	100	60	50	20	100	90	30	80	30	60	30	10	0	90	90
COc1c(F)ccc([C@H]2CN(C)C(=O)[C@@H]2C(=O)Nc2ccc(F)cc2F)c1Cl [Compound 894]	90	100	50	40	0	90	90	20	60	0	50	0	0	0	70	100
CN1C[C@H](c2cc(F)c(C(F)(F)F)c(F)c2)[C@@H](C(=O)Nc2cccc(F)c2F)C1=O [Compound 898]	90	90	50	0	40	80	80	40	70	50	0	0	0	0	55	70
O=C1NC[C@H](c2ccc3c(c2)CCO3)[C@H]1C(=O)Nc1ccc(F)cc1F [Compound 902]	40	90	0	0	0	60	30	0	0	0	0	0	0	0	0	75
CCOc1ccc([C@H]2CN(C)C(=O)[C@@H]2C(=O)Nc2ccccc2F)cc1 [Compound 903]	90	90	0	10	0	80	80	0	0	0	0	0	0	0	0	0
